Results as given in PMC7956564, “Porphyromonas gingivalis HmuY and Bacteroides vulgatus Bvu—A Novel Competitive Heme Acquisition Strategy” (International Journal of Molecular Sciences, 2021).

Target: T1, Bvu (Phocaeicola vulgatus, UniProt A6L2D9)
T1 construct: gene BVU_2192
Experiment: biochemical

T1 sequence (A6L2D9 entry or part of it): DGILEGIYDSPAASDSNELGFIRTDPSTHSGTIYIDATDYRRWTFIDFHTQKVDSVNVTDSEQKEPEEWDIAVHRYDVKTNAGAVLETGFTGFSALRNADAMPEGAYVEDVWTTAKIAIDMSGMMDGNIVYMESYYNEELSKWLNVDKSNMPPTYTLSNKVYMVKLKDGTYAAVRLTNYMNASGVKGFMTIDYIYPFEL

Work on `C=CC1=C(C)C2=Cc3c(C=C)c(C)c4[n]3[Fe][n]3c(c(C)c(CCC(=O)O)c3=CC3=NC(=C4)C(C)=C3CCC(=O)O)=CC1=N2` [Fe(II)heme] yielded a Kd of 1.6 nM.
